Data as given in patent publication US9181258B2, “Substituted 3,4-dihydropyrrolo[1,2-a]pyrazin-1(2H)-ones as protein kinase inhibitors” (NERVIANO MEDICAL SCIENCES S.R.L., priority 2011, dated 2015).
Counter-ions that a name gives are not always drawn.

Columns and labels:
human PIM1 = human PIM1 (Homo sapiens (Human), UniProt P11309); assay: Biochemical assay for inhibitors of PIM1 kinase activity (trans-phosphorylation, Dowex technique); settings: ATP 200 μM, Aktide 25 μM, enzyme 1 nM; read-out: PIM-1 IC50
human PIM1, sequence (P11309 whole entry): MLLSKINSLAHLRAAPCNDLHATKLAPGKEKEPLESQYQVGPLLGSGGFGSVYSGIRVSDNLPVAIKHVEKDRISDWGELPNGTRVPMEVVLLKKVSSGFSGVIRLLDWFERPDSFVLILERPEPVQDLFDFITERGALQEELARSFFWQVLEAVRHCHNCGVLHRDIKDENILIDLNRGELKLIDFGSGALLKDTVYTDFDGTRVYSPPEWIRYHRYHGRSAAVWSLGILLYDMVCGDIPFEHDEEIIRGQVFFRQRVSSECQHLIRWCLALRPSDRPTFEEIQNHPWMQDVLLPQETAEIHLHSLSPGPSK
Summary of the method: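 Full-length human PIM1 (1 nM) phosphorylates Aktide (25 μM) with 200 μM ATP plus 6 nM ^33P-γ-ATP in HEPES 50 mM pH 7.5, 10 mM MgCl2, 1 mM DTT, 3 μM NaVO3, 0.2 mg/mL BSA. Unreacted ATP captured on Dowex resin, supernatant β-counted; IC50 from ten-point 1:3 dilution sigmoidal fit.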

BaF3-PIM1 cells = assay: In vitro cell proliferation assay (CellTiter-Glo), BaF3-PIM1; type: cell-based; settings: 72 hours
MV-4-11 cells = assay: In vitro cell proliferation assay (CellTiter-Glo), MV-4-11; type: cell-based; settings: Homo sapiens, MV4-11, 72 hours
Experimental: In Vitro Cell Proliferation Assay
MV-4-11 (biphenotypic B myelomonocytic leukemia) cell line was obtained from ATCC.
Media for MV-4-11 cell line contained RPMI 1640 or EMEM plus 2 mM Glutamine and 10% Fetal bovine serum.
BaF3-PIM1 and MV-4-11 cells were seeded at 125 cells/well and 1250 cells/well respectively in a 384-well white plates in complete medium and treated with compounds dissolved in 0.1% DMSO, 24 h after seeding.
The cells were incubated at 37° C. and 5% CO2 and after 72 hours the plates were processed using CellTiter-Glo assay (Promega) following the manufacturer's instruction.
CellTiter-Glo was a homogenous method based on the quantification of the ATP present, an indicator of metabolitically active cells. ATP was quantified using a system based on luciferase and D-luciferin resulting into light generation. The luminescent signal was proportional to the number of cells present in culture.
Briefly 25 μl/well reagent solution were added to each wells and after 5 minutes shacking microplates were red by Envision (PerkinElmer) luminometer. The luminescent signal was proportional to the number of cells present in culture.
Inhibitory activity was evaluated comparing treated versus control data using Assay Explorer (MDL) program. IC50 was calculated using sigmoidal interpolation curve.

human PIM2 = human PIM2 (Homo sapiens (Human), UniProt Q9P1W9); assay: PIM2 kinase inhibition assay: Dowex technique; type: biochemical; settings: ATP 4 μM, Aktide 5 μM, enzyme 1.5 nM; read-out: PIM-2 IC50
human PIM2, sequence (Q9P1W9 whole entry): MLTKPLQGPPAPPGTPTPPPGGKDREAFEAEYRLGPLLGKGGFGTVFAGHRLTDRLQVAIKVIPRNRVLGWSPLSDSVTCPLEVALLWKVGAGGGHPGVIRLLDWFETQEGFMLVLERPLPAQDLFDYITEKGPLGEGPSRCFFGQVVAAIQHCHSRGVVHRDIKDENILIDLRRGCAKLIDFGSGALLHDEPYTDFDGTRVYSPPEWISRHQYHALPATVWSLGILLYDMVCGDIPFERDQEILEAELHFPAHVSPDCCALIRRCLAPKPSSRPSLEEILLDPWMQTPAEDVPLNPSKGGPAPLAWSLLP
Summary of the method: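 Full-length human PIM2 (1.5 nM) phosphorylated Aktide (5 μM) with 4 μM ATP plus 1 nM 33P-γ-ATP (final concentrations). Buffer: 50 mM HEPES pH 7.5, 1 mM MgCl2, 1 mM DTT, 3 μM Na3VO4, 0.2 mg/mL BSA. Radiolabel incorporation was read by the robotized Dowex method used for PIM1.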

SMILES | IC50 (human PIM1) [nM] | IC50 (BaF3-PIM1 cells) [nM] | IC50 (MV-4-11 cells) [nM] | IC50 (human PIM2) [nM]
NCC[C@H]1CNC(=O)c2cc(-c3cccc(OC(F)(F)F)c3)c(-c3ccc4ccccc4c3)n21 [Compound 118, (4S)-4-(2-aminoethyl)-6-(naphthalen-2-yl)-7-[3-(trifluoromethoxy)phenyl]-3,4-dihydropyrrolo[1,2-a]pyrazin-1(2H)-one hydrochloride] | 27 | 310 | 760 | 152
Cc1cc(-c2c(-c3cccc(OC(F)(F)F)c3)cc3n2[C@@H](CCN)CNC3=O)ccc1F [Compound 122, (4S)-4-(2-aminoethyl)-6-(4-fluoro-3-methylphenyl)-7-[3-(trifluoromethoxy)phenyl]-3,4-dihydropyrrolo[1,2-a]pyrazin-1(2H)-one hydrochloride] | 17 | 165 | 776 | 86
CSc1ccc(-c2c(-c3cccc(OC(F)(F)F)c3)cc3n2[C@@H](CCN)CNC3=O)cc1 [Compound 123, (4S)-4-(2-aminoethyl)-6-[4-(methylsulfanyl)phenyl]-7-[3-(trifluoromethoxy)phenyl]-3,4-dihydropyrrolo[1,2-a]pyrazin-1(2H)-one hydrochloride] | 16 | 89 | 730 | 45
CC(C)(C)c1ccc(-c2c(-c3cccc(OC(F)(F)F)c3)cc3n2[C@@H](CCN)CNC3=O)cc1 [Compound 124, (4S)-4-(2-aminoethyl)-6-(4-tert-butylphenyl)-7-[3-(trifluoromethoxy)phenyl]-3,4-dihydropyrrolo[1,2-a]pyrazin-1(2H)-one hydrochloride] | 24 | 130 | 468 | 160
NCC[C@H]1CNC(=O)c2cc(-c3cccc(OC(F)(F)F)c3)c(-c3cccc(C(F)(F)F)c3)n21 [Compound 125, (4S)-4-(2-aminoethyl)-7-[3-(trifluoromethoxy)phenyl]-6-[3-(trifluoromethyl)phenyl]-3,4-dihydropyrrolo[1,2-a]pyrazin-1(2H)-one hydrochloride] | 44 | 304 | 940 | 97

The next molecules have a lower IC50 (human PIM1) than those just listed; values first:

IC50 (human PIM1) [nM] | IC50 (BaF3-PIM1 cells) [nM] | IC50 (MV-4-11 cells) [nM] | IC50 (human PIM2) [nM] | SMILES
1 | 1360 | 5350 | 3 | NCC[C@H]1CNC(=O)c2cc(-c3cccc(OC(F)(F)F)c3)c(-c3ccc(S(N)(=O)=O)cc3)n21 [Compound 120, 4-{(4S)-4-(2-aminoethyl)-1-oxo-7-[3-(trifluoromethoxy)phenyl]-1,2,3,4-tetrahydropyrrolo[1,2-a]pyrazin-6-yl}benzenesulfonamide hydrochloride]
3 | 86 | 660 | 12 | NCC[C@H]1CNC(=O)c2cc(-c3cccc(OC(F)(F)F)c3)c(-c3cccc(F)c3)n21 [Compound 121, (4S)-4-(2-aminoethyl)-6-(3-fluorophenyl)-7-[3-(trifluoromethoxy)phenyl]-3,4-dihydropyrrolo[1,2-a]pyrazin-1(2H)-one hydrochloride]
13 | 125 | 776 | 21 | NCC[C@H]1CNC(=O)c2cc(-c3cccc(OC(F)(F)F)c3)c(-c3cccc(Cl)c3)n21 [Compound 126, (4S)-4-(2-aminoethyl)-6-(3-chlorophenyl)-7-[3-(trifluoromethoxy)phenyl]-3,4-dihydropyrrolo[1,2-a]pyrazin-1(2H)-one hydrochloride]
12 | 125 | 433 | 24 | CCOc1ccc(-c2c(-c3cccc(OC(F)(F)F)c3)cc3n2[C@@H](CCN)CNC3=O)cc1F [Compound 127, (4S)-4-(2-aminoethyl)-6-(4-ethoxy-3-fluorophenyl)-7-[3-(trifluoromethoxy)phenyl]-3,4-dihydropyrrolo[1,2-a]pyrazin-1(2H)-one hydrochloride]
